# Data from patent publication US20240174674A1, “NITROGEN-CONTAINING POLYCYCLIC FUSED RING COMPOUND, PHARMACEUTICAL COMPOSITION THEREOF, PREPARATION METHOD THEREFOR, AND USE THEREOF” (APPLIED PHARMACEUTICAL SCIENCE, INC., priority 2021, published 2024).
# Like-named read-outs stand apart in the source and are kept apart here.
# Target: RET G810R (Homo sapiens (Human), UniProt P07949, G810R)
# Test: HTRF KinEASE-TK kinase activity test, RET G810R
# Conditions: for inhibitory activity against RET G810R relative to that of selpercatinib (LOXO-292): fold versus selpercatinib (LOXO-292)
# [1] = read-out: RET G810R IC50, HTRF kinase assay
# Chain of RET G810R (P07949 29-1114 G810R): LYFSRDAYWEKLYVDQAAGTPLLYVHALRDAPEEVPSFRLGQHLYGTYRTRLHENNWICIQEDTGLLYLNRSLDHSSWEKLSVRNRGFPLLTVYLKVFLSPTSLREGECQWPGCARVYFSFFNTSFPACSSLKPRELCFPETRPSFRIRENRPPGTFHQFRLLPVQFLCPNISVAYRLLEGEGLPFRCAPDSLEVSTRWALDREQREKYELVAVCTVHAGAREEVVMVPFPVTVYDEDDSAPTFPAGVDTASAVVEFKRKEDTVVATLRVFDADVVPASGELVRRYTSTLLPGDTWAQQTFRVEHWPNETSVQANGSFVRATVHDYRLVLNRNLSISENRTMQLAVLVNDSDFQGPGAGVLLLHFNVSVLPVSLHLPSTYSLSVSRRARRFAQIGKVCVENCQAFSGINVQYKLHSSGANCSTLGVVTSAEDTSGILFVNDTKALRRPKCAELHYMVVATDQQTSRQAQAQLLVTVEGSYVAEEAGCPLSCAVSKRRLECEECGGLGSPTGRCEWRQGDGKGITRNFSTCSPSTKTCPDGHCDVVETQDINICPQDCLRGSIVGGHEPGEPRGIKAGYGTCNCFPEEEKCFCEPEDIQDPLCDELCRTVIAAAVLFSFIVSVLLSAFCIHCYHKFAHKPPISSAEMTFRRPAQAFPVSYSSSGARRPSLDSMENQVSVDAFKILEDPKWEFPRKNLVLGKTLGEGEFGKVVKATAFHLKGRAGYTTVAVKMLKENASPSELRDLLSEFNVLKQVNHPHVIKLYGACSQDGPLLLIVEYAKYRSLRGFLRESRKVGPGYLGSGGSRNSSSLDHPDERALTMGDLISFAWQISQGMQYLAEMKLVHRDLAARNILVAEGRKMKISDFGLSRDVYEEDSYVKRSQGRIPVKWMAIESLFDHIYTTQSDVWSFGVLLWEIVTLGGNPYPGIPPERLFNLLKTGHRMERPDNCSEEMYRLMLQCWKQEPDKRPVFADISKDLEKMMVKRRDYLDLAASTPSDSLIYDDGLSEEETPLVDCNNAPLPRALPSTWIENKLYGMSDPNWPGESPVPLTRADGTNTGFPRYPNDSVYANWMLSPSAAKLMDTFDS
Compound,IC50 [1],inhibitory activity against RET G810R relative to that of selpercatinib (LOXO-292),IC50
"CCOc1cc(-c2ccc(N3CCC(CO)(C(=O)NCC(C)C)CC3)nc2)c2c3cn[nH]c3nn2c1 [Compound 87, 1-(5-(6-ethoxy-1H-pyrazolo[3′,4′:3,4]pyrazolo[1,5-α]pyridin-4-yl)pyridin-2-yl)-4-(hydroxymethy 1)-N-isobutylpiperidine-4-carboxamide]",9.4 nM,,
CCOc1cc(-c2ccc(N3CCC(CN4CCOCC4)(NC(=O)CC(C)C)CC3)nc2)c2c3cn[nH]c3nn2c1 [Compound 29],8.8 nM,,
"CCOc1cc(-c2ccc(N3CC[C@H](NC(=O)c4c(F)cccc4F)[C@@H](O)C3)nc2)c2c3cn[nH]c3nn2c1 [Compound 294, N-((3S,4S)-1-(5-(6-ethoxy-1H-pyrazolo[3′,4′:3,4]pyrazolo[1,5-α]pyridin-4-yl)pyridin-2-yl)-3-hydroxypiperidin-4-yl)-2,6-difluorobenzamide]",4.1 nM,,
"CCOc1cc(-c2ccc(N3C[C@@H]4C5CCC([C@@H]4C3)N5C(=O)c3c(F)cccc3Cl)nc2)c2c3cn[nH]c3nn2c1 [Compound 180, (2-chloro-6-fluorophenyl)((3aR,7aS)-2-(5-(6-ethoxy-1H-pyrazolo[3′,4′:3,4]pyrazolo[1,5-α]pyridin-4-yl)pyridin-2-yl)octahydro-1H-4,7-epiminoisoindol-8-yl)methanone]",9.7 nM,,
"CCOc1cc(-c2ccc(N3CCC(CO)(NCc4ccc(OC)nc4)CC3)nc2)c2c3cn[nH]c3nn2c1 [Compound 229, (1-(5-(6-ethoxy-1H-pyrazolo[3′,4′:3,4]pyrazolo[1,5-α]pyridin-4-yl)pyridin-2-yl)-4-(((6-methoxypyridin-3-yl)methyl)amino)piperidin-4-yl)methanol]",38.1 nM,,
"CCOc1cc(-c2ccc(N3C[C@@H]4[C@@H](CNC(=O)c5c(F)cccc5Cl)[C@@H]4C3)nc2)c2c3cn[nH]c3nn2c1 [Compound 183, 2-chloro-N-(((1R,5S,6s)-3-(5-(6-ethoxy-1H-pyrazolo[3′,4′:3,4]pyrazolo[1,5-α]pyridin-4-yl)pyridin-2-yl)-3-azabicyclo[3.1.0]hexan-6-yl)methyl)-6-fluorobenzamide]",8 nM,,
CCOc1cc(-c2ccc(N3CC[C@H](NC(=O)c4cc(F)ccc4Cl)[C@@H](O)C3)nc2)c2c3cn[nH]c3nn2c1 [Compound 43],1.9 nM,≥ 10 times,
CCOc1cc(-c2ccc(N3C[C@H]4C[C@H](NC(=O)c5c(F)cccc5Cl)C[C@H]4C3)nc2)c2c3cn[nH]c3nn2c1 [Compound 174],3.5 nM,≥ 10 times,
CCOc1cc(-c2ccc(N3CC4(CCN(C(=O)c5c(F)cccc5Cl)C4)C3)nc2)c2c3cn[nH]c3nn2c1 [Compound 189],15.3 nM,,
"CCOc1cc(-c2ccc(N3C4CCC3CN(Cc3ccc(OC)nc3)C4)nc2)c2c3cn[nH]c3nn2c1 [Compound 158, 6-ethoxy-4-(6-((1R,5S)-3-((6-methoxypyridin-3-yl)methyl)-3,8-diazabicyclo[3.2.1]octan-3-yl)pyridin-8-yl)-1H-pyrazolo[3′,4′:3,4]pyrazolo[1,5-α]pyrazole]",18.7 nM,,
"CCOc1cc(-c2ccc(N3CC[C@H](NC(=O)c4ncccc4C(F)(F)F)[C@H](O)C3)nc2)c2c3cn[nH]c3nn2c1 [Compound 284, N-((3R,4S)-1-(5-(6-ethoxy-1H-pyrazolo[3′,4′:3,4]pyrazolo[1,5-α]pyridin-4-yl)pyridin-2-yl)-3-hydroxypiperidin-4-yl)-3-(trifluoromethyl)picolinamide]",4.2 nM,,
"CCOc1cc(-c2ccc(N3CCC(C)(NC(=O)c4cc(F)ccc4C)CC3)nc2)c2c3cn[nH]c3nn2c1 [Compound 1, N-(1-(5-(6-ethoxy-1H-pyrazolo[3′,4′:3,4]pyrazolo[1,5-α]pyridin-4-yl)pyridin-2-yl)-4-methylpiperidin-4-yl)-5-fluoro-2-methylbenzamide]",6.5 nM,,
CCOc1cc(-c2cnc(N3CCC(C)(NC(=O)c4nc(C)ccc4Cl)CC3)cn2)c2c3cn[nH]c3nn2c1 [Compound 56],23.6 nM,,
"COc1ccc(CN2C3CC2CN(c2ccc(-c4cc(C(=O)O)cn5nc6[nH]ncc6c45)cn2)C3)cn1 [Compound 239, 4-(6-(6-((6-methoxypyridin-3-yl)methyl)-3,6-diazabicyclo[3.1.1]heptan-3-yl)pyridin-3-yl)-1H-py razolo[3′,4′:3,4]pyrazolo[1,5-α]pyridine-6-carboxylic acid]",33.7 nM,,
"O=C(N[C@H]1CCN(c2ccc(-c3cc(OCCF)cn4nc5[nH]ncc5c34)cn2)C[C@@H]1O)c1c(F)cccc1F [Compound 295, N-((3S,4S)-1-(5-(6-(2-fluoroethoxy)-1H-pyrazolo[3′,4′:3,4]pyrazolo[1,5-α]pyridin-4-yl)pyridin-2-yl)-3-hydroxypiperidin-4-yl)-2,6-difluorobenzamide]",2.1 nM,≥ 10 times,
CCOc1cc(-c2cnc(N3CC[C@H](NC(=O)c4cc(F)ccc4Cl)[C@@H](O)C3)cn2)c2c3cn[nH]c3nn2c1 [Compound 91],2.2 nM,≥ 10 times,
"CCOc1cc(-c2ccc(N3CCC(CN(C)C)(NC(=O)c4c(F)cccc4F)CC3)nc2)c2c3cn[nH]c3nn2c1 [Compound 234, N-(4-((dimethylamino)methyl)-1-(5-(6-ethoxy-1H-pyrazolo[3′,4′:3,4]pyrazolo[1,5-α]pyridin-4-yl)pyridin-2-yl)piperidin-4-yl)-2,6-difluorobenzamide]",1.6 nM,≥ 10 times,
CCOc1cc(-c2ccc(N3CCC4(CCCN(C(=O)c5c(F)cccc5Cl)C4)CC3)nc2)c2c3cn[nH]c3nn2c1 [Compound 214],47.3 nM,,
"CCOc1cc(-c2ccc(N3CCC4(CN(C(=O)c5c(F)cccc5Cl)C4)C3)nc2)c2c3cn[nH]c3nn2c1 [Compound 220, N-(6-(5-(6-ethoxy-1H-pyrazolo[3′,4′:3,4]pyrazolo[1,5-α]pyridin-4-yl)pyridin-2-yl)-2,6-diazaspiro [3.4]octan-2-yl)-2-chloro-6-fluorobenzamide]",26.2 nM,,
"CCOc1cc(-c2cnc(N3CCC(C)(NC(=O)c4cc(F)ccc4Cl)CC3)cn2)c2c3cn[nH]c3nn2c1 [Compound 58, 2-chloro-N-(1-(5-(6-ethoxy-1H-pyrazolo[3′,4′:3,4]pyrazolo[1,5-α]pyridin-4-yl)pyrazin-2-yl)-4-methylpiperidin-4-yl)-5-fluorobenzamide]",5.6 nM,,
CCOc1cc(-c2ccc(N3CC[C@H](NC(=O)c4ncccc4C(F)(F)F)[C@@H](O)C3)nc2)c2c3cn[nH]c3nn2c1 [Compound 45],5.2 nM,,
"COc1ccc(CN2C3CC2CN(c2ccc(-c4cc(P(C)(C)=O)cn5nc6[nH]ncc6c45)cn2)C3)cn1 [Compound 237, (4-(6-(6-((6-methoxypyridin-3-yl)methyl)-3,6-diazabicyclo[3.1.1]heptan-3-yl)pyridin-3-yl)-1H-pyrazolo[3′,4′:3,4]pyrazolo[1,5-α]pyridin-6-yl)dimethylphosphine oxide]",112 nM,,

# Continued, values first:
IC50 [1],inhibitory activity against RET G810R relative to that of selpercatinib (LOXO-292),IC50,Compound
12.5 nM,,,CCOc1cc(-c2ccc(N3C[C@@H]4[C@H](C3)[C@@H]4NCc3ccc(OC)nc3)nc2)c2c3cn[nH]c3nn2c1 [Compound 173]
2 nM,≥ 10 times,,CCOc1cc(-c2ccc(N3CC[C@H](NC(=O)C(C)C(C)C)[C@@H](O)C3)nc2)c2c3cn[nH]c3nn2c1 (stereo partly drawn) [Compound 89]
16.1 nM,,,CCOc1cc(-c2ccc(N3CC4CCC3CN4C(=O)c3c(F)cccc3Cl)nc2)c2c3cn[nH]c3nn2c1 (stereo not drawn) [Compound 159]
1.2 nM,≥ 10 times,,"CCOc1cc(-c2ccc(N3CC[C@H](NC(=O)c4cc(F)ccc4C)[C@H](O)C3)nc2)c2c3cn[nH]c3nn2c1 [Compound 277, N-((3R,4S)-1-(5-(6-ethoxy-1H-pyrazolo[3′,4′:3,4]pyrazolo[1,5-α]pyridin-4-yl)pyridin-2-yl)-3-hydroxypiperidin-4-yl)-5-fluoro-2-methylbenzamide]"
3.6 nM,≥ 10 times,,"CCOc1cc(-c2ccc(N3CCC(O)(CNS(=O)(=O)c4ccccc4)CC3)nc2)c2c3cn[nH]c3nn2c1 [Compound 102, N-((1-(5-(6-ethoxy-1H-pyrazolo[3′,4′:3,4]pyrazolo[1,5-α]pyridin-4-yl)pyridin-2-yl)-4-hydroxypiperidin-4-yl)methylene)benzenesulfonamide]"
4.3 nM,,,CCOc1cc(-c2cnc(N3CC[C@H](NC(=O)c4c(F)cccc4Cl)[C@@H](O)C3)cn2)c2c3cn[nH]c3nn2c1 [Compound 51]
,,4.6 nM,"CCOc1cc(-c2cnc(N3CCC(C)(NC(=O)c4ncccc4Cl)CC3)cn2)c2c3cn[nH]c3nn2c1 [Compound 59, 3-chloro-N-(1-(5-(6-ethoxy-1H-pyrazolo[3′,4′:3,4]pyrazolo[1,5-α]pyridin-4-yl)pyrazin-2-yl)-4-methylpiperidin-4-yl)-2-picolinamide]"
5.1 nM,,,"CCOc1cc(-c2ccc(N3CCC(CN(C)C)(C(=O)NCC(C)C)CC3)nc2)c2c3cn[nH]c3nn2c1 [Compound 35, 4-((dimethylamino)methyl)-1-(5-(6-ethoxy-1H-pyrazolo[3′,4′:3,4]pyrazolo[1,5-α]pyridin-4-yl)pyridin-2-yl)-N-isobutylpiperidine-4-carboxamide]"
2.1 nM,≥ 10 times,,"CCOc1cc(-c2ccc(N3CCC(CN4CCN(CC)CC4)(NC(=O)c4cc(F)ccc4F)CC3)nc2)c2c3cn[nH]c3nn2c1 [Compound 17, N-(1-(5-(6-ethoxy-1H-pyrazolo[3′,4′:3,4]pyrazolo[1,5-α]pyridin-4-yl)pyridin-2-yl)-4-((4-ethylpiperazin-1-yl)methyl)piperidin-4-yl)-2,5-difluorobenzamide]"
1.8 nM,≥ 10 times,,"O=C(N[C@H]1CCN(c2ccc(-c3cc(OCC(F)F)cn4nc5[nH]ncc5c34)cn2)C[C@H]1O)c1c(F)cccc1Cl [Compound 292, N-((3R,4S)-1-(5-(6-(2,2-difluoroethoxy)-1H-pyrazolo[3′,4′:3,4]pyrazolo[1,5-α]pyridin-4-yl)pyridin-2-yl)piperidin-3-hydroxypiperidin-4-yl)-2-chloro-6-fluorobenzamide]"
